Test results as given in PMC7473772 (eLife, 2020).
Values joined by “and” are separate entries in the source; they are usually repeats but may differ in a detail not shown here. Equal entries are not always repeated. Where two headings read alike, the source gives them in different places.

Experiments:
Assay type in all cases: cell-based, Trypanosoma brucei brucei
[1] = tested on: tbaqp2/tbaqp3 null cells expressing TbAQP2^I110W
[2] = tested on: tbaqp2/tbaqp3 null cells expressing TbAQP2^S131P/S263A
[3] = tested on: tbaqp2/tbaqp3 null cells expressing TbAQP2^L258Y
[4] = tested on: tbaqp2/tbaqp3 null cells expressing TbAQP2WT; experiment: microbe, parasite or virus in culture
[5] = tested on: tbaqp2/tbaqp3 null cells expressing TbAQP2^L264R
[6] = tested on: tbaqp2/tbaqp3 null cells expressing TbAQP2^W192G
[7] = tested on: tbaqp2/tbaqp3 null cells expressing TbAQP2 L84W; experiment: microbe, parasite or virus in culture
tbaqp2/tbaqp3 null cells = experiment: microbe, parasite or virus in culture
[8] = tested on: tbaqp2/tbaqp3 null cells expressing TbAQP3^W102I/R256L/Y250L
[9] = tested on: tbaqp2/tbaqp3 null cells expressing TbAQP2^I190T/W192G
[10] = tested on: tbaqp2/tbaqp3 null cells expressing TbAQP2 L118W; experiment: microbe, parasite or virus in culture
[11] = tested on: tbaqp2/tbaqp3 null cells expressing TbAQP2 L84M; experiment: microbe, parasite or virus in culture
[12] = tested on: tbaqp2/tbaqp3 null cells expressing TbAQP2 L118M; experiment: microbe, parasite or virus in culture
[13] = tested on: tbaqp2/tbaqp3 null cells expressing TbAQP2^I190T
[14] = tested on: tbaqp2/tbaqp3 null cells expressing TbAQP3
[15] = tested on: tbaqp2/tbaqp3 null cells expressing TbAQP2 L218W; experiment: microbe, parasite or virus in culture
[16] = tested on: tbaqp2/tbaqp3 null cells expressing TbAQP2 L218M; experiment: microbe, parasite or virus in culture
[17] = tested on: tbaqp2/tbaqp3 null cells expressing TbAQP3^W102I/R256L

## Cl.Cl.NCCS[As](SCCN)c1ccc(Nc2nc(N)nc(N)n2)cc1 [Cymelarsan]
[1]
  EC50, percent of AQP2/3 null EC50: 106.64%
[2]
  EC50, percent of AQP2/3 null EC50: 58.29%
[3]
  EC50, percent of AQP2/3 null EC50: 33.16%
[4]
  EC50 (% of aqp2/aqp3 null), MEAN: 14.85 % of aqp2/aqp3 null
  EC50, MEAN (% KO): 21.40 % KO
  EC50, percent of AQP2/3 null EC50: 11.82% and 12.84% and 17.72% and 13.38%
  EC50 as percent of AQP2/3 null EC50, MEAN: 12.527% and 12.55%
[5]
  EC50, percent of AQP2/3 null EC50: 99.62%
[6]
  EC50 as percent of AQP2/3 null EC50, MEAN: 42.01%
  EC50 as percent of AQP2/3 null EC50, single repeats: 38.89% and 33.6754% and 48.5349% and 30.3438% and 47.7536% and 38.5508% and 45.4365% and 52.8716%
[7]
  EC50 (% of aqp2/aqp3 null), MEAN: 100.47 % of aqp2/aqp3 null
  EC50 (% of aqp2/aqp3 null), single repeats: 103.60 % of aqp2/aqp3 null and 103.34 % of aqp2/aqp3 null and 94.46 % of aqp2/aqp3 null
[7]; read-out: EC50, MEAN
  EC50: 20 nM
[7]; read-out: EC50, single repeats
  EC50: 20.6 nM (2×) and 18.8 nM
tbaqp2/tbaqp3 null cells
  EC50 (% of aqp2/aqp3 null), MEAN: 100.00 % of aqp2/aqp3 null
  EC50 (% of aqp2/aqp3 null), single repeats: 100.09 % of aqp2/aqp3 null and 107.11 % of aqp2/aqp3 null and 92.80 % of aqp2/aqp3 null and 105.96 % of aqp2/aqp3 null and 97.29 % of aqp2/aqp3 null and 96.75 % of aqp2/aqp3 null and 92.36 % of aqp2/aqp3 null and 100.54 % of aqp2/aqp3 null
  EC50, MEAN (% KO): 100.00 % KO
  EC50, percent of AQP2/3 null EC50: 100.00%
  EC50 as percent of AQP2/3 null EC50, MEAN: 100.00%
  EC50 as percent of AQP2/3 null EC50, single repeats: 100.0%
tbaqp2/tbaqp3 null cells; read-out: EC50, MEAN
  EC50: 19.9 nM
[8]
  EC50, percent of AQP2/3 null EC50: 159 ± 8%
[9]
  EC50 as percent of AQP2/3 null EC50, MEAN: 95.01%
  EC50 as percent of AQP2/3 null EC50, single repeats: 84.5691% and 96.0784% and 104.69% and 94.6857%
[10]
  EC50 (% of aqp2/aqp3 null), MEAN: 92.14 % of aqp2/aqp3 null
  EC50 (% of aqp2/aqp3 null), single repeats: 88.70 % of aqp2/aqp3 null and 124.82 % of aqp2/aqp3 null and 62.91 % of aqp2/aqp3 null
[10]; read-out: EC50, MEAN
  EC50: 18.4 nM
[10]; read-out: EC50, single repeats
  EC50: 17.7 nM and 24.9 nM and 12.5 nM
[11]
  EC50, MEAN (% KO): 62.94 % KO
[11]; read-out: EC50, MEAN
  EC50: 13.9 nM
[11]; read-out: EC50, single repeats
  EC50: 14.7 nM and 14.5 nM and 12.4 nM and 13.7 nM and 10.5 nM and 17.1 nM
[12]
  EC50 (% of aqp2/aqp3 null), single repeats: 106.00 % of aqp2/aqp3 null and 109.38 % of aqp2/aqp3 null and 101.17 % of aqp2/aqp3 null and 149.03 % of aqp2/aqp3 null and 147.52 % of aqp2/aqp3 null
  EC50, MEAN (% KO): 122.62 % KO
[12]; read-out: EC50, MEAN
  EC50: 34.3 nM
[12]; read-out: EC50, single repeats
  EC50: 34.5 nM and 35.6 nM and 32.9 nM and 24.6 nM and 24.4 nM
[13]
  EC50 as percent of AQP2/3 null EC50, MEAN: 64.67%
[14]
  EC50, percent of AQP2/3 null EC50: 114 ± 5%
[15]
  EC50 (% of aqp2/aqp3 null), MEAN: 94.01 % of aqp2/aqp3 null
  EC50 (% of aqp2/aqp3 null), single repeats: 100.13 % of aqp2/aqp3 null and 113.78 % of aqp2/aqp3 null and 68.13 % of aqp2/aqp3 null
[15]; read-out: EC50, MEAN
  EC50: 18.7 nM
[15]; read-out: EC50, single repeats
  EC50: 20 nM and 22.7 nM and 13.6 nM
[16]
  EC50, MEAN (% KO): 58.15 % KO
[16]; read-out: EC50, MEAN
  EC50: 11.2 nM
[16]; read-out: EC50, single repeats
  EC50: 11.4 nM and 11.3 nM and 10.9 nM and 12.3 nM and 12.4 nM and 15.8 nM
[17]
  EC50, percent of AQP2/3 null EC50: 105 ± 8%
